Test results reported in US6737383B1, “Herbicidal oxadiazolidines” (priority 1999, dated 2004).

Columns and labels:
corn = experiment: Test B pre/postemergence corn; type: in vivo, Zea mays
Method in brief: (§1)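 Test chemicals in a non-phytotoxic solvent mixture with surfactant were sprayed preemergence onto planted seeds and postemergence onto plants 2 to 18 cm tall (1- to 4-leaf stage). After twelve to sixteen days in a greenhouse, injury was visually rated against untreated controls from 0 (no effect) to 10 (complete control).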

velvetleaf = experiment: Test B pre/postemergence velvetleaf; type: in vivo, Abutilon theophrasti; settings: for Plant response rating, Velvetleaf: scale of 0 to 10 where 0 is no effect and 10 is complete control
Method in brief: as §1

duck salad = experiment: Test B flood test duck salad; type: in vivo, Heteranthera limosa
Method in brief: (§2)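 Each value is a visual injury score relative to controls, with 10 meaning complete control and 0 no effect. Evaluation took place twelve to sixteen days after the 2-leaf-stage plants were treated and kept in the greenhouse.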

wild oat = experiment: Test B pre/postemergence wild oat; type: in vivo, Avena fatua; settings: for Plant response rating, Wild oats: scale of 0 to 10 where 0 is no effect and 10 is complete control
Method in brief: as §1

soybean = experiment: Test B pre/postemergence soybean; type: in vivo, Glycine max; settings: for Plant response rating, Soybean: scale of 0 to 10 where 0 is no effect and 10 is complete control
Method in brief: as §1

smallflower flatsedge = experiment: Test B flood test smallflower flatsedge; type: in vivo, Cyperus difformis
Method in brief: as §2

sugar beet = experiment: Test B pre/postemergence sugar beet; type: in vivo, Beta vulgaris; settings: for Plant response rating, Sugarbeets: scale of 0 to 10 where 0 is no effect and 10 is complete control
Method in brief: as §1

pigweed = experiment: Test B pre/postemergence pigweed; type: in vivo, Amaranthus retroflexus; settings: for Plant response rating, Redroot pigweed: scale of 0 to 10 where 0 is no effect and 10 is complete control
Method in brief: as §1

cocklebur = experiment: Test B pre/postemergence cocklebur; type: in vivo, Xanthium strumarium
Method in brief: as §1

surinam grass = experiment: Test B pre/postemergence surinam grass; type: in vivo, Brachiaria decumbens
Method in brief: as §1

giant foxtail = experiment: Test B pre/postemergence giant foxtail; type: in vivo, Setaria faberii
Method in brief: as §1

wheat = experiment: Test B pre/postemergence wheat; type: in vivo, Triticum aestivum; settings: for Plant response rating, Wheat: scale of 0 to 10 where 0 is no effect and 10 is complete control
Method in brief: as §1

rape = experiment: Test B pre/postemergence rape; type: in vivo, Brassica napus; settings: for Plant response rating, Rape: scale of 0 to 10 where 0 is no effect and 10 is complete control
Method in brief: as §1

bamyardgrass = experiment: Test B flood test barnyardgrass; type: in vivo, Echinochloa crus-galli
Method in brief: as §2

rice = experiment: Test B flood test rice; type: in vivo, Oryza sativa
Method in brief: as §2

morningglory = experiment: Test B pre/postemergence morningglory; type: in vivo, Ipomoea hederacea; settings: for Plant response rating, Morningglory: scale of 0 to 10 where 0 is no effect and 10 is complete control
Method in brief: as §1

[1] = Postemergence, Rate 250 g/ha, scale 0 to 10
[2] = Postemergence, Rate 500 g/ha, scale of 0 to 10 where 0 is no effect and 10 is complete control
[3] = Preemergence, Rate 62 g/ha, scale of 0 to 10 where 0 is no effect and 10 is complete control
[4] = Preemergence, Rate 125 g/ha, scale of 0 to 10 where 0 is no effect and 10 is complete control
[5] = Preemergence, Rate 250 g/ha, scale 0 to 10, 0 is no effect, 10 is complete control
[6] = Preemergence, Rate 500 g/ha, scale 0 to 10, 0 is no effect, 10 is complete control
[7] = Rate 62 g/ha, Postemergence, scale 0 to 10 (0 no effect, 10 complete control)
[8] = Rate 125 g/ha, Postemergence, scale 0 to 10, 0 is no effect, 10 is complete control
[9] = Rate 62 g/ha, flood test species, Pre-emergence, visual evaluation after twelve to sixteen days
[10] = Rate 125 g/ha, under heading Pre-emergence, flood test species, visual evaluation after twelve to sixteen days
[11] = Rate 250 g/ha, Pre-emergence (flood test species), scale 0 to 10, 0 is no effect, 10 is complete control
[12] = Rate 500 g/ha, Pre-emergence, flood test species, scale 0 to 10 (0 no effect, 10 complete control)

## CC(C)N(C(=O)n1oc(=O)n(C(CF)CF)c1=O)c1ccc(Cl)cc1 [Compound 468]
corn; [1]
  Corn plant response rating: 0
corn; [2]
  Corn plant response rating: 0
corn; [3]
  Plant response rating, Corn: 0
corn; [4]
  Plant response rating, Corn: 0
corn; [5]
  Corn plant response rating: 0
corn; [6]
  Corn plant response rating: 2
corn; [7]
  Corn plant response rating: 0
corn; [8]
  Corn plant response rating: 0
velvetleaf; [1]
  Velvetleaf plant response rating: 2
velvetleaf; Preemergence, Rate 62 g/ha
  Plant response rating, Velvetleaf: 0
velvetleaf; Preemergence, Rate 125 g/ha
  Plant response rating, Velvetleaf: 0
velvetleaf; [5]
  Velvetleaf plant response rating: 1
velvetleaf; [6]
  Velvetleaf plant response rating: 4
velvetleaf; [7]
  Velvetleaf plant response rating: 0
velvetleaf; [8]
  Velvetleaf plant response rating: 0
Duck salad; [9]
  Plant response rating, Ducksalad (0 to 10 scale, 0 is no effect, 10 is complete control): 0
Duck salad; [10]
  Ducksalad plant response rating (0 to 10 scale, 0 is no effect, 10 is complete control): 0
Duck salad; [11]
  Ducksalad plant response rating: 0
Duck salad; [12]
  Ducksalad plant response rating: 0
Wild oat; [1]
  Wild oats plant response rating: 0
Wild oat; Preemergence, Rate 62 g/ha
  Plant response rating, Wild oats: 0
Wild oat; Preemergence, Rate 125 g/ha
  Plant response rating, Wild oats: 0
Wild oat; [5]
  Wild oats plant response rating: 3
Wild oat; [6]
  Wild oats plant response rating: 7
Wild oat; [7]
  Wild oats plant response rating: 0
Wild oat; [8]
  Wild oats plant response rating: 0
soybean; [1]
  Soybean plant response rating: 1
soybean; Preemergence, Rate 62 g/ha
  Plant response rating, Soybean: 0
soybean; Preemergence, Rate 125 g/ha
  Plant response rating, Soybean: 0
soybean; [5]
  Soybean plant response rating: 0
soybean; [6]
  Soybean plant response rating: 0
soybean; [7]
  Soybean plant response rating: 1
soybean; [8]
  Soybean plant response rating: 1
Smallflower flatsedge; [9]
  Plant response rating, S. Flatsedge (0 to 10 scale, 0 is no effect, 10 is complete control): 0
Smallflower flatsedge; [10]
  S. Flatsedge plant response rating (0 to 10 scale, 0 is no effect, 10 is complete control): 0
Smallflower flatsedge; [11]
  S. Flatsedge plant response rating: 0
Smallflower flatsedge; [12]
  S. Flatsedge plant response rating: 0
Sugar beet; [1]
  Sugarbeets plant response rating: 0
Sugar beet; Preemergence, Rate 62 g/ha
  Plant response rating, Sugarbeets: 0
Sugar beet; Preemergence, Rate 125 g/ha
  Plant response rating, Sugarbeets: 0
Sugar beet; [5]
  Sugarbeets plant response rating: 2
Sugar beet; [6]
  Sugarbeets plant response rating: 6
Sugar beet; [7]
  Sugarbeets plant response rating: 0
Sugar beet; [8]
  Sugarbeets plant response rating: 0
pigweed; [1]
  Redroot pigweed plant response rating: 4
pigweed; Preemergence, Rate 62 g/ha
  Plant response rating, Redroot pigweed: 0
pigweed; Preemergence, Rate 125 g/ha
  Plant response rating, Redroot pigweed: 4
pigweed; [5]
  Redroot pigweed plant response rating: 8
pigweed; [6]
  Redroot pigweed plant response rating: 10
pigweed; [7]
  Redroot pigweed plant response rating: 0
pigweed; [8]
  Redroot pigweed plant response rating: 2
cocklebur; [1]
  Cocklebur plant response rating: 2
cocklebur; [2]
  Cocklebur plant response rating: 4
cocklebur; [3]
  Plant response rating, Cocklebur: 0
cocklebur; [4]
  Plant response rating, Cocklebur: 0
cocklebur; [5]
  Cocklebur plant response rating: 0
cocklebur; [6]
  Cocklebur plant response rating: 0
cocklebur; [7]
  Cocklebur plant response rating: 0
cocklebur; [8]
  Cocklebur plant response rating: 0
Surinam grass; Postemergence, Rate 250 g/ha, scale 0 to 10, 0 no effect, 10 complete control
  B. signalgrass plant response rating: 0
Surinam grass; [2]
  B. signalgrass plant response rating: 0
Surinam grass; [3]
  Plant response rating, B. signalgrass: 0
Surinam grass; [4]
  Plant response rating, B. signalgrass: 2
Surinam grass; [5]
  B. signalgrass plant response rating: 3
Surinam grass; [6]
  B. signalgrass plant response rating: 4
Surinam grass; [7]
  B. signalgrass plant response rating: 0
Surinam grass; [8]
  B. signalgrass plant response rating: 0
Giant foxtail; [1]
  Giant foxtail plant response rating: 9
Giant foxtail; [2]
  Giant foxtail plant response rating: 9
Giant foxtail; [3]
  Plant response rating, Giant foxtail: 6
Giant foxtail; [4]
  Plant response rating, Giant foxtail: 8
Giant foxtail; [5]
  Giant foxtail plant response rating: 9
Giant foxtail; [6]
  Giant foxtail plant response rating: 10
Giant foxtail; [7]
  Giant foxtail plant response rating: 1
Giant foxtail; [8]
  Giant foxtail plant response rating: 3
wheat; [1]
  Wheat plant response rating: 0
wheat; Preemergence, Rate 62 g/ha
  Plant response rating, Wheat: 0
wheat; Preemergence, Rate 125 g/ha
  Plant response rating, Wheat: 0
wheat; [5]
  Wheat plant response rating: 0
wheat; [6]
  Wheat plant response rating: 6
wheat; [7]
  Wheat plant response rating: 0
wheat; [8]
  Wheat plant response rating: 0
rape; [1]
  Rape plant response rating: 0
rape; Preemergence, Rate 62 g/ha
  Plant response rating, Rape: 0
rape; Preemergence, Rate 125 g/ha
  Plant response rating, Rape: 0
rape; [5]
  Rape plant response rating: 3
rape; [6]
  Rape plant response rating: 6
rape; [7]
  Rape plant response rating: 0
rape; [8]
  Rape plant response rating: 0
bamyardgrass; [9]
  Plant response rating, Barnyardgrass (0 to 10 scale, 0 is no effect, 10 is complete control): 0
bamyardgrass; [10]
  Barnyardgrass plant response rating (0 to 10 scale, 0 is no effect, 10 is complete control): 0
bamyardgrass; [11]
  Barnyardgrass plant response rating: 0
bamyardgrass; [12]
  Barnyardgrass plant response rating: 0
rice; [9]
  Plant response rating, Rice (0 to 10 scale, 0 is no effect, 10 is complete control): 0
rice; [10]
  Rice plant response rating (0 to 10 scale, 0 is no effect, 10 is complete control): 0
rice; [11]
  Rice plant response rating: 0
rice; [12]
  Rice plant response rating: 0
morningglory; [1]
  Morningglory plant response rating: 4
morningglory; Preemergence, Rate 62 g/ha
  Plant response rating, Morningglory: 0
morningglory; Preemergence, Rate 125 g/ha
  Plant response rating, Morningglory: 0
morningglory; [5]
  Morningglory plant response rating: 0
morningglory; [6]
  Morningglory plant response rating: 2
morningglory; [7]
  Morningglory plant response rating: 2
morningglory; [8]
  Morningglory plant response rating: 3
